Two compounds from US20080227638A1, “Use of abscisic acid to enhance growth control” (priority 2007, published 2008) can be followed below.

Type in all cases: in vivo
In one assay the test system is Tall fescue, cv K-31. The assay can be described thus: Tall fescue cv K-31 height, ABA and trinexapac-ethyl (Example 6). The protocol: (§1) Greenhouse studies were conducted at the Research Farm of Valent BioSciences Corporation (Long Grove, Ill.). Grasses were grown in pots (18 cm in diameter and 18 cm in height) filled with Promix BX (available from Premier Horticulture Inc. Quakertown, Pa.). Grass was irrigated daily by an overhead irrigation system. The irrigation system was set up with multiple Tornado Mist Spray Heads (10 GPH at 40 PSI-Wetted diameter, NDS/Raindrip, Woodland Hills, Calif.). Spray heads were 1-meter apart from each other and 75 cm above grass canopy. Grass was cut with a scissor at 2.5 cm height and fertilizer (1 g/L all purpose fertilizer 20-20-20, available from The Scotts Company, Marysville, Ohio) was applied once per week.
(§2) Chemical solutions were prepared with distilled water. Tween 20 (0.05% v/v) was used as an, adjuvant. Both trinexapac-ethyl (commercial product Primo Maxx, 11.3% active ingredient) and paclobutrazol (commercial product Trimmit 2SC, 22.3% active ingredient) were purchased from Syngenta Crop Protection Inc. (Greensboro, N.C.). Uniconazole-P (commercial product Sumagic, 0.55% active ingredient) was obtained from Valent U.S.A. Corporation (Walnut Creek, Calif.).
(§3) When treated with paclobutrazol or uniconazole-P, turfgrass received irrigation within 24 hours after application to flush chemicals to the root zone. After treatment, turfgrasses were arranged in a randomized complete block experimental design. Turfgrass quality, turfgrass height or clip fresh weight was measured on assigned dates. Turfgrass quality was visually rated on a 0-9 scale based on the color, uniformity and density of the grass with 0 as the worst and 9 as the best. Turfgrass height was measured as the distance between canopy surface and soil. Clips were collected from each plot; all plots were cut to a uniform height.
(§4) All experiments were randomized complete block experimental design. Data were analyzed by analysis of variance. Duncan's new multiple range tests at α=0.05 were used for mean separations.

Assay [1] concerns Kentucky bluegrass cv Midnight. The assay can be described thus: Kentucky bluegrass cv Midnight height, ABA and trinexapac-ethyl (Example 6). To be noted: 7 days after treatment. On the procedure:
as §1
Chemical solutions were prepared with distilled water. Tween 20 (0.05% v/v) was used as an, adjuvant. […]
When treated with paclobutrazol or uniconazole-P, turfgrass received irrigation within 24 hours after application to flush chemicals to the root zone. […] Turfgrass quality, turfgrass height or clip fresh weight was measured on assigned dates. […] Turfgrass height was measured as the distance between canopy surface and soil. […]
All experiments were randomized complete block experimental design. Data were analyzed by analysis of variance. […]

Assay [2] relates to Kentucky bluegrass. Kind of assay: Greenhouse Kentucky bluegrass height, ABA and uniconazole-P (Example 3). To be noted: 200 ppm ABA. The protocol:
as §1, §2, §3, §4
Kentucky bluegrass sod (unknown variety) was purchased from Deak sod farms, Inc. (Union Grove, Wis.). Grass was grown in the greenhouse in pots (n=6 pots per treatment) for establishment before treatment. […] Tween 20 (0.05% w/v) was included as an adjuvant. The turfgrass was cut every 7 days.

The test system of assay [3] is Kentucky bluegrass. Kind of assay: Greenhouse Kentucky bluegrass height and quality, ABA and paclobutrazol (Example 2). To be noted: 200 ppm ABA. On the procedure: as §1, §2, §3, §4
Kentucky bluegrass sod (unknown variety) was purchased from Deak sod farms, Inc. (Union Grove, Wis.). Grass was grown in the greenhouse in pots (n=6 pots per treatment) for establishment before treatment. […] Turfgrass quality was evaluated at 7 days after treatment, and turfgrass height was measured at 7 and 28 days after treatment. Tween 20 (0.05% w/v) was included as an adjuvant. The turfgrass canopy was cut every 7 days during the experimental period.

A further assay concerns creeping bentgrass. Kind of assay: Golf course green creeping bentgrass height, clip weight and quality, ABA and uniconazole-P (Example 5). To be noted: 200 ppm ABA. The protocol: Field studies were conducted at the nursery green or the practice green at Countryside golf course (Mundelein, Ill.). Both greens were sand based and growing Penncross creeping bentgrass. Grass was managed with typical Illinois golf course management practices.
as §2, §3, §4
Tween 20 (0.05% w/v) was included as an adjuvant.

In another assay the test system is Bermudagrass. Kind of assay: Bermudagrass clip weight, ABA and uniconazole-P (Example 7). To be noted: 200 ppm ABA; 7 days after treatment. The protocol:
as §2, §3, §4

Consider `CCOC(=O)C1CC(=O)C(=C(O)C2CC2)C(=O)C1` (stereo not drawn) [trinexapac-ethyl], for which the Turfgrass height in the assay on Tall fescue, cv K-31 (80 ppm trinexapac-ethyl, 7 days after treatment) amounted to 11.8 cm; in the assay on Tall fescue, cv K-31 (80 ppm trinexapac-ethyl, 21 days after treatment), 19.8 cm; in the assay on Tall fescue, cv K-31 (160 ppm trinexapac-ethyl, 7 days after treatment), 9.7 cm; in the assay with Tall fescue, cv K-31 (160 ppm trinexapac-ethyl, 21 days after treatment), 20.1 cm; in assay [1] (80 ppm trinexapac-ethyl), 7.6 cm; in assay [1] (160 ppm trinexapac-ethyl), 6.7 cm.

As for S-abscisic acid [ABA], the Turfgrass height in the assay with Kentucky bluegrass [2] (7 days after treatment) is on record as 12.3 cm; with Kentucky bluegrass [2] (42 days after treatment), 9.4 cm; with Kentucky bluegrass [3] (7 days after treatment), 11.7 cm; in the assay with Kentucky bluegrass [3] (28 days after treatment), 9.7 cm; with creeping bentgrass (7 days after treatment), 5.0 cm; in the assay with creeping bentgrass (49 days after treatment) it was 4.6 cm. The Clip weight was 2.0 g in the assay on creeping bentgrass (7 days after treatment), 2.7 g in the assay on creeping bentgrass (49 days after treatment) and 1.8 g in the assay with Bermudagrass.
